In PubChem BioAssay AID248 (DTP/NCI, 2004):
“And” between values parts separate entries of the source, which are not always exact repeats. Identical values can stand only once. Toxic doses and inconclusive results are not listed. Cut-off read from the data, not from the text of the source: active = T/C of 150% or more; inactive = T/C below 125%.

Tested on: L1210 leukemia ip in BDF1 mice, survival T/C
Assay: NCI In Vivo Anticancer Drug Screen. Data for tumor model L1210 Leukemia (intraperitoneal) in B6D2F1 (BDF1) mice
Details: endpoint: mean survival time, higher = longer survival
Method in brief: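 Value reflects the ratio of survival in compound-treated mice to survival in vehicle-treated controls, with both groups carrying the same transplanted tumor.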

[1] = dose: 100.0 mg/kg/injection, schedule: Q01DX009 (ip), vehicle: saline with Tween-80
[2] = dose: 100.0 mg/kg/injection, schedule: Q04DX003 (ip), vehicle: saline with Tween-80
[3] = dose: 200.0 mg/kg/injection, schedule: Q01DX009 (ip), vehicle: saline with Tween-80
[4] = dose: 200.0 mg/kg/injection, schedule: Q04DX003 (ip), vehicle: saline with Tween-80
[5] = dose: 400.0 mg/kg/injection, schedule: Q01DX009 (ip), vehicle: saline with Tween-80
[6] = dose: 400.0 mg/kg/injection, schedule: Q04DX003 (ip), vehicle: saline with Tween-80
[7] = dose: 100.0 mg/kg/injection, schedule: Q04DX003 (ip), vehicle: Klucel (hydroxypropylcellulose) (HPC)
[8] = dose: 200.0 mg/kg/injection, schedule: Q04DX003 (ip), vehicle: Klucel (hydroxypropylcellulose) (HPC)
[9] = dose: 100.0 mg/kg/injection, schedule: Q01DX001 (ip), vehicle: saline
[10] = dose: 400.0 mg/kg/injection, schedule: Q01DX001 (ip), vehicle: saline
[11] = dose: 50.0 mg/kg/injection, schedule: Q01DX009 (ip), vehicle: saline with Tween-80
[12] = dose: 400.0 mg/kg/injection, schedule: Q04DX003 (ip), vehicle: Klucel (hydroxypropylcellulose) (HPC)
[13] = dose: 100.0 mg/kg/injection, schedule: Q04DX002 (ip), vehicle: Klucel (hydroxypropylcellulose) (HPC)
[14] = dose: 200.0 mg/kg/injection, schedule: Q04DX002 (ip), vehicle: Klucel (hydroxypropylcellulose) (HPC)
[15] = dose: 400.0 mg/kg/injection, schedule: Q04DX002 (ip), vehicle: Klucel (hydroxypropylcellulose) (HPC)
[16] = dose: 100.0 mg/kg/injection, schedule: Q01DX001 (ip), vehicle: saline with Tween-80
[17] = dose: 100.0 mg/kg/injection, schedule: Q01DX001 (ip), vehicle: carboxymethylcellulose (CMC)
[18] = dose: 200.0 mg/kg/injection, schedule: Q01DX001 (ip), vehicle: carboxymethylcellulose (CMC)

Measured: T/C

Clc1ccc(Oc2ccc(N3C=Nc4ccc(Oc5ccc(Cl)cc5)cc4C3)cc2)cc1
inactive: [1] 98 % of control | [2] 97 % of control | [3] 96 % of control | [4] 94 % of control | [5] 93 % of control | [6] 89 % of control

OCC1CCCN2CCCCC12 (stereo not given)
inactive: dose: 100.0 mg/kg/injection, schedule: Q04DX003 (ip), vehicle: saline 98 % of control | dose: 200.0 mg/kg/injection, schedule: Q04DX003 (ip), vehicle: saline 90 % of control

Nc1cccnc1Cl
inactive: dose: 100.0 mg/kg/injection, schedule: Q01DX009 (ip), vehicle: alcohol 100 % of control | dose: 100.0 mg/kg/injection, schedule: Q04DX003 (ip), vehicle: other 92 % of control | dose: 200.0 mg/kg/injection, schedule: Q01DX009 (ip), vehicle: alcohol 96 % of control | dose: 200.0 mg/kg/injection, schedule: Q04DX003 (ip), vehicle: other 90 % of control | dose: 400.0 mg/kg/injection, schedule: Q01DX009 (ip), vehicle: alcohol 96 % of control | dose: 400.0 mg/kg/injection, schedule: Q04DX003 (ip), vehicle: other 93 % of control

Nc1cc(S(=O)(=O)O)cc2cc(S(=O)(=O)O)cc(S(=O)(=O)O)c12
inactive: dose: 100.0 mg/kg/injection, schedule: Q01DX009 (ip), vehicle: saline 107 % of control | dose: 200.0 mg/kg/injection, schedule: Q01DX009 (ip), vehicle: saline 104 % of control | dose: 400.0 mg/kg/injection, schedule: Q01DX009 (ip), vehicle: saline 100 % of control

COC(=O)C(CSCc1ccccc1)NC(=O)OCc1ccccc1 (stereo not given)
inactive: dose: 100.0 mg/kg/injection, schedule: Q01DX009 (ip), vehicle: Klucel (hydroxypropylcellulose) (HPC) 96 % of control | [7] 90 % of control | dose: 200.0 mg/kg/injection, schedule: Q01DX009 (ip), vehicle: Klucel (hydroxypropylcellulose) (HPC) 94 % of control | [8] 87 % of control | dose: 400.0 mg/kg/injection, schedule: Q01DX009 (ip), vehicle: Klucel (hydroxypropylcellulose) (HPC) 94 % of control

CCC1OCCN1C(C)C (stereo not given)
inactive: dose: 26.0 mg/kg/injection, schedule: Q01DX Z (ip), vehicle: other 105 % of control | dose: 90.0 mg/kg/injection, schedule: Q01DX Z (ip), vehicle: other 111 % of control | [9] 102 % of control and 104 % of control | dose: 135.0 mg/kg/injection, schedule: Q01DX Z (ip), vehicle: other 95 % of control | dose: 200.0 mg/kg/injection, schedule: Q01DX001 (ip), vehicle: saline 96 % of control and 104 % of control | [10] 92 % of control and 93 % of control

CCCCSc1cc(C)nc2ccccc12
inactive: dose: 25.0 mg/kg/injection, schedule: Q01DX009 (ip), vehicle: saline with Tween-80 100 % of control | dose: 25.0 mg/kg/injection, schedule: Q04DX002 (ip), vehicle: saline with Tween-80 93 % of control | [11] 96 % of control | dose: 50.0 mg/kg/injection, schedule: Q04DX002 (ip), vehicle: saline with Tween-80 96 % of control | [1] 93 % of control | dose: 100.0 mg/kg/injection, schedule: Q04DX002 (ip), vehicle: saline with Tween-80 93 % of control

CCOC(=O)C(=CNc1cccc(N)n1)C(=O)OCC
inactive: [7] 95 % of control | [8] 97 % of control | [12] 92 % of control

CCC1(c2ccccc2)NC(=O)NC1=O (stereo not given)
inactive: [1] 102 % of control | [3] 100 % of control

Cc1cc(N(CCCOS(C)(=O)=O)CCCOS(C)(=O)=O)ccc1C=Nc1cc(Br)c(O)c(Br)c1
inactive: [1] 94 % of control | [2] 92 % of control | [3] 94 % of control | [4] 90 % of control | [5] 89 % of control | [6] 94 % of control

COc1ccc(-n2c(=O)c(N=Nc3ccc(Cl)cc3)c(O)n(-c3ccccc3C)c2=S)cc1
inactive: dose: 37.5 mg/kg/injection, schedule: Q01DX001 (ip), vehicle: Klucel (hydroxypropylcellulose) (HPC) 96 % of control | dose: 75.0 mg/kg/injection, schedule: Q01DX001 (ip), vehicle: Klucel (hydroxypropylcellulose) (HPC) 90 % of control | dose: 150.0 mg/kg/injection, schedule: Q01DX001 (ip), vehicle: Klucel (hydroxypropylcellulose) (HPC) 92 % of control

Cc1cc(=O)oc2cc(OC(=O)Nc3ccc(F)c(Cl)c3)ccc12
inactive: dose: 3.12 mg/kg/injection, schedule: Q01DX009 (ip), vehicle: Klucel (hydroxypropylcellulose) (HPC) 102 % of control | dose: 6.25 mg/kg/injection, schedule: Q01DX009 (ip), vehicle: Klucel (hydroxypropylcellulose) (HPC) 96 % of control | dose: 12.5 mg/kg/injection, schedule: Q01DX009 (ip), vehicle: Klucel (hydroxypropylcellulose) (HPC) 93 % of control and 92 % of control | [7] 97 % of control | [8] 100 % of control | [12] 101 % of control

CC1CCC(C)(C)CC1(C)c1cc(CN(C)C)c(O)c(CN(C)C)c1 (stereo not given)
inactive: dose: 12.5 mg/kg/injection, schedule: Q04DX003 (ip), vehicle: acetone 93 % of control | dose: 25.0 mg/kg/injection, schedule: Q04DX003 (ip), vehicle: acetone 98 % of control | dose: 50.0 mg/kg/injection, schedule: Q04DX003 (ip), vehicle: acetone 90 % of control

COc1cc(CC#N)c(OC)cc1CC#N
inactive: [1] 94 % of control | [2] 89 % of control | [3] 89 % of control | [4] 89 % of control | [5] 99 % of control | [6] 88 % of control

NNC(=O)C(Cc1cnc[nH]1)NC(=O)OCc1ccccc1 (stereo not given)
inactive: [13] 100 % of control | [14] 90 % of control | [15] 107 % of control

NC(=O)c1cn[nH]c1/N=N/N1CCCC1C(=O)O (stereo not given)
inactive: [16] 100 % of control | [1] 111 % of control | [2] 104 % of control | dose: 200.0 mg/kg/injection, schedule: Q01DX001 (ip), vehicle: saline with Tween-80 107 % of control | [3] 97 % of control | [4] 104 % of control | dose: 400.0 mg/kg/injection, schedule: Q01DX001 (ip), vehicle: saline with Tween-80 102 % of control | [5] 94 % of control | [6] 106 % of control

O=C(O)C(=S)Cc1cn[nH]n1
inactive: [9] 103 % of control | [10] 100 % of control

O=C1CCCCC1C(O)(C(=O)c1ccccc1)c1ccccc1 (stereo not given)
inactive: [13] 100 % of control | [14] 96 % of control | [15] 100 % of control

CC(=O)OC(C)C(C)Br (stereo not given)
inactive: dose: 50.0 mg/kg/injection, schedule: Q04DX002 (ip), vehicle: Klucel (hydroxypropylcellulose) (HPC) 93 % of control | dose: 100.0 mg/kg/injection, schedule: Q01DX001 (ip), vehicle: acetone 89 % of control | [13] 100 % of control | dose: 200.0 mg/kg/injection, schedule: Q01DX001 (ip), vehicle: acetone 92 % of control

O=S(=O)(Nc1cc(N2CCOCC2)c(O)c2ccccc12)c1ccccc1
inactive: dose: 25.0 mg/kg/injection, schedule: Q01DX001 (ip), vehicle: saline with Tween-80 95 % of control | dose: 50.0 mg/kg/injection, schedule: Q01DX001 (ip), vehicle: saline with Tween-80 97 % of control | [16] 94 % of control

COC(=O)C1CC2(CNc3ccccc32)CN1C (stereo not given)
inactive: [7] 90 % of control | [8] 89 % of control | [12] 89 % of control

Cc1cc(N(CCCl)CCCl)ccc1C=Nc1ccc(C(=O)O)c(O)c1
inactive: [17] 111 % of control | [18] 95 % of control

CCOP(=S)(OCC)SC(C)C
inactive: [2] 97 % of control | [4] 97 % of control

O=NN1CCCNCC1
inactive: dose: 25.0 mg/kg/injection, schedule: Q01DX009 (ip), vehicle: water 104 % of control | dose: 50.0 mg/kg/injection, schedule: Q01DX009 (ip), vehicle: water 111 % of control | dose: 100.0 mg/kg/injection, schedule: Q01DX009 (ip), vehicle: water 106 % of control | dose: 200.0 mg/kg/injection, schedule: Q01DX009 (ip), vehicle: water 101 % of control | dose: 400.0 mg/kg/injection, schedule: Q01DX009 (ip), vehicle: water 112 % of control

O=[N+]([O-])c1cncn1CCN1CCOCC1
inactive: [17] 88 % of control | [18] 88 % of control | dose: 400.0 mg/kg/injection, schedule: Q01DX001 (ip), vehicle: carboxymethylcellulose (CMC) 94 % of control

Clc1ccc(C#[C][Hg][C]#Cc2ccc(Cl)cc2)cc1
inactive: [11] 109 % of control | [1] 95 % of control | [3] 92 % of control
